# Where two headings read alike, the source gives them in different places.
# What was measured:
# [1] = biological target: T1, Human recombinant PDE2A (hPDE2A) (Homo sapiens, UniProt O00408); assay: In vitro assay PDE2A (SPA, 3H-cGMP); type: biochemical
# T1 construct: made in house; host or cells: Sf9 insect cells (baculovirus)
# [2] = biological target: T2, Rat recombinant PDE10A (rPDE10A2) (Rattus norvegicus, UniProt Q9QYJ6); assay: In vitro assay PDE10A (SPA, 3H-cAMP); type: biochemical
# T2 construct: made in house; host or cells: Sf9 insect cells (baculovirus)
# T2 sequence (Q9QYJ6 1-794): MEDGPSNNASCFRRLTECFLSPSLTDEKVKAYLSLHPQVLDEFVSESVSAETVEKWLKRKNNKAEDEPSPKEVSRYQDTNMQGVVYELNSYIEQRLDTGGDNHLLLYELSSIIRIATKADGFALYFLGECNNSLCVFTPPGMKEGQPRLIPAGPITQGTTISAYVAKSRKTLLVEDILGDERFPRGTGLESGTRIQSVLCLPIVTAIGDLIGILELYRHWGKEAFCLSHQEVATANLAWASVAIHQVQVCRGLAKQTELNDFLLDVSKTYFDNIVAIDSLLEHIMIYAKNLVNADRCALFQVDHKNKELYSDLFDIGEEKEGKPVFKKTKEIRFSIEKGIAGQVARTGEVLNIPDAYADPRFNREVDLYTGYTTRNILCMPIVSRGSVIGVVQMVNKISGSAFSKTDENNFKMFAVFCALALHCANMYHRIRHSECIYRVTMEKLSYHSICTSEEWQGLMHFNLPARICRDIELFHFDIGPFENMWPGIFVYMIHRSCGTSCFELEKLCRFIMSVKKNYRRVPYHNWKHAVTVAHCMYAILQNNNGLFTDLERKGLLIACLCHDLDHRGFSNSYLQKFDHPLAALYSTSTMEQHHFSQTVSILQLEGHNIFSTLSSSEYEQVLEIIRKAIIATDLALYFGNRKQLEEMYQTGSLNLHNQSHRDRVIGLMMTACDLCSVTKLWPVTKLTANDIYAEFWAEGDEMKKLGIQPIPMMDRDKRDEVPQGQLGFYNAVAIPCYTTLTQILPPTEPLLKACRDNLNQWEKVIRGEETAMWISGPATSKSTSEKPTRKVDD
# [3] = system: Apomorphine-induced agitation; assay: Reversal of Apomorphine-induced Agitation in Rats (APO); type: in vivo, rat; conditions: for PO Max effect (cumulative agitation score over 60 min) / SC Max effect (cumulative agitation score over 60 min): apomorphine 1.0 mg/kg i.v.; for PO LAD (lowest active dose) / SC LAD (lowest active dose): lowest dose at which ≥67% tested animals respond; for SC Dose at max effect / SC Max effect (cumulative agitation score over 60 min) / SC LAD (lowest active dose): subcutaneous route
# Experimental: Apomorphine (1.0 mg/kg, i.v.)-induced agitation was scored every 5 min over the first hour after injection of apomorphine. The score system was: (3) pronounced, (2) moderate, (1) slight, and (0) absent. […] For the present purpose, the cumulative agitation score over the whole 60-min observation period was used as a measure to describe the maximum effect (Max effect).
# [4] = read-out: pIC50 PDE2 (converted)
# [5] = read-out: PIC50 PDE10 (converted)
# [6] = -log IC50 expressed in mol/L, rPDE10A2, 60 nM cAMP, read-out: PIC50 PDE10 (converted)
# T1 sequence (O00408 whole entry): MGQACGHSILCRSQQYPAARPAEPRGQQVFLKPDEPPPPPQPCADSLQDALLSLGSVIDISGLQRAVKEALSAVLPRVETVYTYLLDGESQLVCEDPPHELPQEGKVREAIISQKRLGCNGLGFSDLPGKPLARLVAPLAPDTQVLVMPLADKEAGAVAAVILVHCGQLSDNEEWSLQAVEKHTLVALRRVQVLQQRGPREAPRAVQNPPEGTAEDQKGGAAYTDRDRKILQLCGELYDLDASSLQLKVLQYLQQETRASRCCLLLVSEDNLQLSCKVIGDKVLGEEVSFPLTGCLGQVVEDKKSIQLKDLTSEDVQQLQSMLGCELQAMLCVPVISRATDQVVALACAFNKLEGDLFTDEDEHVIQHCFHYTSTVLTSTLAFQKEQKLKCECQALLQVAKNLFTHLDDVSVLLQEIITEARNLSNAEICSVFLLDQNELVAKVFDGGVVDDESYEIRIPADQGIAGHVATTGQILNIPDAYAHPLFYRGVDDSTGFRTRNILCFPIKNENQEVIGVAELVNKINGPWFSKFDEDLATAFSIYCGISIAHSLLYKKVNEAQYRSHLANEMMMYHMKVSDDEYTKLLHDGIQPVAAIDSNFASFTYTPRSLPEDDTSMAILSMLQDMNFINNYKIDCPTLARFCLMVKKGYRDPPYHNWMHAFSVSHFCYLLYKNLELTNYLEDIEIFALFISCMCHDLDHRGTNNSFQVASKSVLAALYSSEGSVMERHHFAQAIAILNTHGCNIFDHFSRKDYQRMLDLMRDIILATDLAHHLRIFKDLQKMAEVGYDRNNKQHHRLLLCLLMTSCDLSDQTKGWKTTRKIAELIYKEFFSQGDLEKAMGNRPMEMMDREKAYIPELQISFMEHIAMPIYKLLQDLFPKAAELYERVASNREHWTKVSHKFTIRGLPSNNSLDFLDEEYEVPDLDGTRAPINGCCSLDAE
Compound,"IC50 [1, 4]","IC50 [2, 5]",PO Dose at Max Effect [3],PO Max effect (cumulative agitation score over 60 min) [3],PO LAD (lowest active dose) [3],SC Dose at max effect [3],SC Max effect (cumulative agitation score over 60 min) [3],SC LAD (lowest active dose) [3],IC50 [1],IC50 [2],"IC50 [2, 6]"
Cc1nc2ccc(C(=O)NCc3cccc(F)n3)cc2n2c(-c3ccccc3Cl)nnc12 [Compound B-32],0.251 nM,6.61 nM,10 mg/kg,22,> 10 mg/kg,,,,,,
COc1ccc(-c2nnc3c(C)nc4ccc(C(=O)NCc5ccccn5)cc4n23)c(Cl)c1 [Compound B-74],6.92 nM,129 nM,10 mg/kg,21,> 10 mg/kg,,,,,,
Cc1nc2ccc(CN[C@H]3CC[C@H](O)CC3)cc2n2c(-c3ccccc3Cl)nnc12 [Compound B-90],12 nM,50.1 nM,,,,10 mg/kg,25,> 10 mg/kg,,,
"COc1ccc2nc(C)c3nnc(-c4ccccc4Cl)n3c2c1 [Compound B-5, 1-(2-Chlorophenyl)-8-methoxy-4-methyl[1,2,4]triazolo[4,3-a]quinoxaline]",7.59 nM,25.1 nM,10 mg/kg,21,> 10 mg/kg,,,,,,
"Cc1nc2ccc(C(O)C(F)(F)F)cc2n2c(-c3ccccc3Cl)nnc12 (stereo not shown) [Compound B-21, 1-[1-(2-Chlorophenyl)-4-methyl[1,2,4]triazolo[4,3-a]quinoxalin-8-yl]-2,2,2-trifluoroethanol]",6.46 nM,41.7 nM,10 mg/kg,24,> 10 mg/kg,,,,,,
Cc1nc2ccc(C(=O)NCCN3CCCC3)cc2n2c(-c3ccccc3Cl)nnc12 [Compound B-48],2.09 nM,61.7 nM,,,,10 mg/kg,24,> 10 mg/kg,,,
CCOc1ccc(Cl)c(-c2nnc3c(C)nc4ccc(CN5CCC(O)CC5)cc4n23)c1 [Compound B-128],28.8 nM,229 nM,,,,10 mg/kg,21,> 10 mg/kg,,,
CCOc1ccc(Cl)c(-c2nnc3c(C)nc4ccc(Br)cc4n23)c1 [Compound B-85],10.7 nM,123 nM,10 mg/kg,21,> 10 mg/kg,,,,,,
COc1ccc(Cl)c(-c2nnc3c(C)nc4ccc(C(=O)NCc5ccccn5)cc4n23)c1 [Compound B-43],1.62 nM,43.7 nM,10 mg/kg,19,10 mg/kg,,,,,,
CNC(=O)c1ccc2nc(C)c3nnc(-c4ccccc4Cl)n3c2c1 [Compound B-46],1.95 nM,20 nM,10 mg/kg,21,> 10 mg/kg,,,,,,
COc1cc(CNC(=O)c2ccc3nc(C)c4nnc(-c5ccccc5Cl)n4c3c2)cc(OC)c1OC [Compound B-66],5.89 nM,37.2 nM,10 mg/kg,21,> 10 mg/kg,,,,,,
"Cc1nc2ccc(C(=O)NCc3ccccn3)cc2n2c(-c3cc(Cl)ccc3Cl)nnc12 [Compound B-11, 1-(2,5-Dichlorophenyl)-4-methyl-N-(pyridin-2-ylmethyl)[1,2,4]triazolo[4,3-a]quinoxaline-8-carboxamide]",1.62 nM,33.9 nM,10 mg/kg,19,> 10 mg/kg,,,,,,
Cc1nc2ccc(CN3CCOC(CO)C3)cc2n2c(-c3ccccc3Cl)nnc12 (stereo not shown) [Compound B-55],,,,,,10 mg/kg,22,> 10 mg/kg,3.47 nM,10.7 nM,
CCNC(=O)c1ccc2nc(C)c3nnc(-c4ccccc4OC)n3c2c1 [Compound B-78],7.59 nM,93.3 nM,10 mg/kg,21,> 10 mg/kg,,,,,,
Cc1nc2ccc(CN3CCOC(CF)C3)cc2n2c(-c3ccccc3Cl)nnc12 (stereo not shown) [Compound B-59],4.9 nM,23.4 nM,,,,10 mg/kg,15,10 mg/kg,,,
Cc1nc2ccc(C(=O)NCCCc3ccccc3)cc2n2c(-c3ccccc3)nnc12 [Compound B-77],7.41 nM,77.6 nM,2.5 mg/kg,21,> 2.5 mg/kg,,,,,,
COc1ccccc1-c1nnc2c(C)nc3ccc(C(=O)NCc4ccccn4)cc3n12 [Compound B-53],3.09 nM,37.2 nM,10 mg/kg,24,> 10 mg/kg,,,,,,
Cc1nc2ccc(CN3CCOC(CCF)C3)cc2n2c(-c3ccccc3Cl)nnc12 (stereo not shown) [Compound B-89],11.7 nM,50.1 nM,,,,5 mg/kg,24,> 5 mg/kg,,,
Cc1nc2ccc(CN3CCC(F)CC3)cc2n2c(-c3ccccc3Cl)nnc12 [Compound B-61],5.5 nM,20 nM,,,,10 mg/kg,15,10 mg/kg,,,
Cc1nc2ccc(CN3CCOC(F)(C(F)(F)F)C3)cc2n2c(-c3ccccc3Cl)nnc12 (stereo not shown) [Compound B-114],24.5 nM,105 nM,10 mg/kg,24,> 10 mg/kg,,,,,,
CCNC(=O)c1ccc2nc(C)c3nnc(-c4ccccc4F)n3c2c1 [Compound B-51],2.51 nM,,10 mg/kg,21,> 10 mg/kg,,,,,,155 nM
"Cc1nc2cc(Br)ccc2n2c(-c3ccccc3Cl)nnc12 [Compound B-3b, 7-Bromo-1-(2-chlorophenyl)-4-methyl[1,2,4]triazolo[4,3-a]quinoxaline]",60.3 nM,191 nM,10 mg/kg,22,> 10 mg/kg,,,,,,
Cc1nc2ccc(C(=O)NCc3cccnc3)cc2n2c(-c3ccccc3)nnc12 [Compound B-56],3.98 nM,44.7 nM,10 mg/kg,21,> 10 mg/kg,,,,,,
Cc1ccc(Cl)c(-c2nnc3c(C)nc4ccc(C(=O)NCc5ccccn5)cc4n23)c1 [Compound B-44],1.78 nM,35.5 nM,10 mg/kg,21,> 10 mg/kg,,,,,,
CCOc1ccc(Cl)c(-c2nnc3c(C)nc4ccc(OCCc5cccnc5)cc4n23)c1 [Compound B-121],33.9 nM,145 nM,,,,10 mg/kg,21,> 10 mg/kg,,,
Cc1nc2ccc(C(=O)NCCc3ccccc3)cc2n2c(-c3ccccc3Cl)nnc12 [Compound B-38],0.724 nM,25.1 nM,2.5 mg/kg,19,2.5 mg/kg,,,,,,
CCOc1ccc(Cl)c(-c2nnc3c(C)nc4ccc(CNc5cccnc5)cc4n23)c1 [Compound B-103],18.6 nM,178 nM,,,,10 mg/kg,21,> 10 mg/kg,,,
Cc1nc2ccc(CN3CCN(C)CC3)cc2n2c(-c3ccccc3Cl)nnc12 [Compound B-73],6.76 nM,,,,,10 mg/kg,19,10 mg/kg,,,67.6 nM
Cc1ncccc1-c1nnc2c(C)nc3ccc(OC(F)(F)F)cc3n12 [Compound B-168],97.7 nM,174 nM,10 mg/kg,16,10 mg/kg,,,,,,
